Experimental data as given in patent publication US20230310352A1, “NOVEL COMPOSITIONS AND METHODS FOR THE TREATMENT OF LUNG FIBROSIS” (LAURENT PHARMACEUTICALS INC., priority 2020, published 2023).

Tested on: bleomycin-induced lung fibrosis
Experiment: Intratracheal bleomycin mouse model of pulmonary fibrosis (28-day model)
Type: in vivo, C57BL/6N mice
Conditions: Day 28; oral once daily Day 7 to Day 28; fenretinide 10 mg/kg (as LAU-7b SDI), pirfenidone 100 mg/kg
Excerpt: Oral administration of a solid, amorphous dispersion formulation of fenretinide (LAU-7b SDI) was provided as a treatment for reduction of pulmonary fibrosis, in a mouse model of lung fibrosis induced via a single intratracheal administration of bleomycin, for 21 days. The LAU-7b SDI formulation was obtained by spray drying and contains fenretinide in amorphous form in a solid dispersion comprising a matrix polymer, based on the following formula: 40% fenretinide, 59.6% povidone (KOLLIDON® 30), 0.24% butylated hydroxyanisole (BHA) and 0.16% butylated hydroxytoluene (BHT).
Male C57BL/6N mice from Charles River Laboratories, 10-12 weeks of age, weighing around 20-25 g, at the time of their enrolment, received 50 μL of bleomycin sulfate (2.0 mg/kg) by a single intratracheal instillation on Day 1 of the study to induce lung fibrosis. The sham group received an equivalent volume of 0.9% saline. On Day 7 postbleomycin instillation, the animals were randomized in groups of animals based on their body weight loss and enhanced pause airway resistance estimate (PenH value), while the sham group had 6 mice. Oral dosing by gavage (10 mL/kg) with the vehicle (sham and BLM control groups), the test articles (fenretinide 10 mg/kg), and the reference compound (pirfenidone 100 mg/kg) were administered once daily starting from Day 7 to Day 28. Two hours following the last dose on Day 28, all mice were sacrificed, the lungs of each mouse harvested, flushed with 0.9% NaCl and inflated with 10% neutral buffered formalin solution. After embedding and mounting of the lung tissue (transversal slices of 5 μm thickness), the histology slides were stained with hematoxylin/eosin for the Ashcroft score evaluation by a treatment-blinded pathologist and with Sirius red staining for automated fibrosis quantification (Biocelvia, France).
The key endpoints evaluated in this study were Ashcroft score, pulmonary foci and collagen content obtained by histological assessment of the lung tissue at the end of the study. Statistical analysis was made on normally distributed data by one-way ANOVA followed by multiple comparisons (Fisher's LSD post hoc test) to assess the difference between the groups, using Graph Pad Prism Software version 8.0 (San Diego, CA, USA). Differences were considered statistically significant when P values were p<0.05 (*), or p<0.01 (**) or p<0.001 (***).
Ashcroft scale for the evaluation of bleomycin-induced lung fibrosis is the analysis of stained histological samples by visual assessment. The Ashcroft score was assessed in lung tissue collected on Day 28 by treatment-blinded pathologist on H&E stained lung tissue histology slides (3 cross sections/animal) and using the modified Ashcroft scale. Briefly, each lung section was scanned at a magnification of x100 (H&E staining), read by a blinded examiner, and graded from 0 (normal lung) to 8 (total fibrotic obliteration of the field). Criteria for grading lung fibrosis in Ashcroft scale are as follows: Grade 0=normal lung; Grade 1=minimal fibrous thickening of alveolar or bronchiolar walls; Grade 3=moderate thickening of walls without obvious damage to lung architecture; Grade 5=increased fibrosis with definitive damage to lung structure and formation of fibrous bands or small fibrous masses; Grade 7=severe distortion of structure and large fibrous area; Grade 8=total fibrous obliteration of lung fields. The mean value of the grades obtained for each of the three sections was used as the Ashcroft score. Ashcroft score, using the modified scale, is a reliable and reproducible method of visual quantification of bleomycin induced lung fibrosis in H&E stained histological lung sections based on description of the general morphology of alveolar septa and lung structure. […]

With `CC1=C(/C=C/C(C)=C/C=C/C(C)=C/C(=O)Nc2ccc(O)cc2)C(C)(C)CCC1` [fenretinide, 4-hydroxyphenyl retinamide] the “Ashcroft score vs BLM control” value was “reduced significantly (p<0.05)”, the “percentage of collagen content in lung tissue, automated Sirius red analysis, vs BLM control” value was “significantly reduced” and the “percentage of pulmonary foci (fibrotic tissue), automated Sirius red analysis, vs BLM control” value was “significant reduction”.
